Test results taken from PMC11864979, “First-in-class ultralong-target-residence-time p38α inhibitors as a mitosis-targeted therapy for colorectal cancer” (Nature Cancer, 2025).
“And” between values parts separate entries of the source, which are not always exact repeats. Identical values can stand only once.

Legend:
PDO7 = experiment: cell viability in patient-derived CRC organoids PDO7; type: cell-based, human; conditions: PDO7, 1 µM, 4 days
Protocol: (§1) For in vitro treatment studies, organoids were mechanically dissociated and digested using TrypLE supplemented with 100 µg ml^−1 DNaseI and 10.5 µM Y-27632 dihydrochloride (Invitrogen) at 37 °C. A total of 1,000–2,000 single cells were plated per well in white 96-well plates (Greiner) in culture medium containing 10% GFR Matrigel or Cultrex BME. The treatment with doxycycline (5 µg ml^−1), pharmacological inhibitors or corresponding volumes of DMSO was started 24 h after plating. Doxycycline was obtained from Sigma-Aldrich. […] Cell viability was measured by means of CellTiter-Glo 3D or CellTiter-Glo 2.0 reagent (Promega) according to the manufacturers’ instructions and the Infinite M Plex reader (Tecan, i-control version 3.9.1 software). Results were normalized to vehicle (DMSO) or to shNC. For cell-doubling assays, the cell number was quantified at the corresponding time points using Guava EasyCyte flow cytometer (Luminex, CytoSoft v5.2 software).

PDO8 = experiment: cell viability in patient-derived CRC organoids PDO8; type: cell-based, human
Protocol: as §1

PDO9 = experiment: cell viability in patient-derived CRC organoids PDO9; type: cell-based, human
Protocol: as §1

PDO13 = experiment: cell viability in patient-derived CRC organoids PDO13; type: cell-based, human
Protocol: as §1

PDO15 = experiment: cell viability in patient-derived CRC organoids PDO15; type: cell-based, human
Protocol: as §1

HCT-15 = experiment: cell viability in human CRC cell line HCT-15; type: cell-based
Protocol: (§2) To generate KAP^2D cells, KAP organoids were isolated from Matrigel, fragmented by mechanical dissociation and plated without any extracellular matrix on common cell culture dishes. Phoenix-Eco packaging cells (CRL-3214), HCT-15 (CCL-225), HCT 116 (CCL-247), COLO 205 (CCL-222), LS 174T (CL-188), RKO (CRL-2577) and HT-29 (HTB-38) were obtained from the American Type Culture Collection. The cells were cultured at 37 °C and 7% CO2 with RPMI (KAP^2D cells) or DMEM (other cell lines), supplemented with 10% FBS and penicillin–streptomycin. KAP^2D cells were authenticated using PCR (Kras locus and Trp53 locus). Phoenix-Eco packaging cells and HCT-15, HCT 116, COLO 205, LS 174T, RKO and HT-29 cells were authenticated by the provider using short tandem repeat profiling. No commonly misidentified cell lines were used. Mycoplasma contamination was excluded by a PCR-based analysis.
as §1

HCT 116 = experiment: cell viability in human CRC cell line HCT 116; type: cell-based; conditions: 4 d
Protocol: as §2, §1

Compound: CNC(=O)c1ccc2c(c1)C(=O)c1ccc(Nc3ccc(F)c(NC(=O)C4CC4)c3)cc1CC2 [Compound 2015]
- viability at 1 µM (PDO7; Homo sapiens, 96 h, read-out: Cell viability (%)): 5.06%
- Cell viability (%) (PDO7; 1 µM): 7.93% and 9.20%
- viability at 1 µM (PDO8; Homo sapiens, 96 h, PDO8, 1 µM, 4 days): 47.8%
- Cell viability (%) (PDO8; PDO8, 0.5 µM, 4 d, 0.5 µM): 62.35% and 47.16% and 31.30%
- Cell viability (%) (PDO8; PDO8, 1 µM, 4 days, 1 µM): 40.47% and 33.30%
- viability at 0.5 µM (PDO9; Homo sapiens, 96 h, PDO9, 0.5 µM, 4 d, read-out: Cell viability (%)): 20.8%
- viability at 1 µM (PDO9; Homo sapiens, 96 h, PDO9, 1 µM, 4 days): 9.78%
- Cell viability (%) (PDO9; PDO9, 0.5 µM, 4 d, 0.5 µM): 30.12% and 37.18%
- Cell viability (%) (PDO9; PDO9, 1 µM, 4 days, 1 µM): 8.84% and 14.14%
- viability at 0.5 µM (PDO13; Homo sapiens, 96 h, PDO13, 0.5 µM, 4 d, read-out: Cell viability (%)): 25.4%
- viability at 1 µM (PDO13; Homo sapiens, 96 h, PDO13, 1 µM, 4 days, read-out: Cell viability (%)): 27.4%
- Cell viability (%) (PDO13; PDO13, 0.5 µM, 4 d, 0.5 µM): 27.09% and 31.57%
- Cell viability (%) (PDO13; PDO13, 1 µM, 4 days, 1 µM): 24.42% and 28.18%
- viability at 0.5 µM (PDO15; Homo sapiens, 96 h, PDO15, 0.5 µM, 4 d, read-out: Cell viability (%)): 77.8%
- viability at 1 µM (PDO15; Homo sapiens, 96 h, PDO15, 1 µM, 4 days, read-out: Cell viability (%)): 42.9%
- Cell viability (%) (PDO15; PDO15, 0.5 µM, 4 d, 0.5 µM): 81.70% and 63.83%
- Cell viability (%) (PDO15; PDO15, 1 µM, 4 days, 1 µM): 57.05% and 51.26%
- HCT-15 Cell viability (%) (HCT-15; 0.0137 µM, 4 d): 103.10% and 103.13% and 91.18% and 87.03% and 85.56%
- HCT-15 Cell viability (%) (HCT-15; 0.0412 µM, 4 d): 84.86% and 83.29% and 102.50% and 98.30% and 96.97%
- HCT-15 Cell viability (%) (HCT-15; 0.1235 µM, 4 d): 82.55% and 82.85% and 86.50% and 79.01% and 79.10%
- HCT-15 Cell viability (%) (HCT-15; 0.3704 µM, 4 d): 32.71% and 35.41% and 27.58% and 24.60% and 25.76%
- HCT-15 Cell viability (%) (HCT-15; 1.1111 µM, 4 d): 27.21% and 26.38% and 23.73% and 21.02% and 21.11%
- HCT-15 Cell viability (%) (HCT-15; 3.3333 µM, 4 d): 22.84% and 23.64% and 17.67% and 16.95% and 16.80%
- HCT-15 Cell viability (%) (HCT-15; 10.0000 µM, 4 d): 23.68% and 23.79% and 17.32% and 16.59% and 17.19%
- IC50 (HCT-15; Homo sapiens, 96 h, HCT-15, 4 d of treatment): 182 nM
- viability at 0.0137 µM (HCT-15; Homo sapiens, HCT-15, 96 h, 0.0137 µM, 4 d, read-out: HCT-15 Cell viability (%)): 103%
- viability at 0.0412 µM (HCT-15; Homo sapiens, HCT-15, 96 h, 0.0412 µM, 4 d, read-out: HCT-15 Cell viability (%)): 89.2%
- viability at 0.1235 µM (HCT-15; Homo sapiens, HCT-15, 96 h, 0.1235 µM, 4 d, read-out: HCT-15 Cell viability (%)): 85.9%
- viability at 0.3704 µM (HCT-15; Homo sapiens, HCT-15, 96 h, 0.3704 µM, 4 d, read-out: HCT-15 Cell viability (%)): 23.5%
- viability at 1.1111 µM (HCT-15; Homo sapiens, HCT-15, 96 h, 1.1111 µM, 4 d, read-out: HCT-15 Cell viability (%)): 31.6%
- viability at 3.3333 µM (HCT-15; Homo sapiens, HCT-15, 96 h, 3.3333 µM, 4 d, read-out: HCT-15 Cell viability (%)): 23.9%
- viability at 10 µM (HCT-15; Homo sapiens, HCT-15, 96 h, 10.0000 µM, 4 d, read-out: HCT-15 Cell viability (%)): 24.1%
- HCT 116 Cell viability (%) (HCT 116; 0.0137 µM): 85.88% and 79.68% and 90.88% and 87.20%
- HCT 116 Cell viability (%) (HCT 116; 0.0412 µM): 87.17% and 85.37% and 79.18% and 81.34% and 80.02%
- HCT 116 Cell viability (%) (HCT 116; 0.1235 µM): 87.59% and 86.63% and 89.97% and 77.29% and 78.27%
